Test results reported in patent US9512425B2, “Inhibiting migration of cancer cells” (Cornell University, priority 2012, dated 2016).
Entries after “also recorded” stand apart in the source; their conditions may differ.

Columns and labels:
[1] = system: p-ERK (T202); test: Western blot of p-ERK after ATP stimulation; type: cell-based, human; conditions: MDA-miR-708 vs MDA cells after ATP
Method: (§1) Cells were homogenized in 1×RIPA lysis buffer (Millipore) containing protease inhibitors (Roche Applied Science) and 1× phosphatase inhibitor (Thermo Scientific). Samples were boiled in 1× NuPAGE LDS sampling buffer (Invitrogen), and loaded onto 4-20% gradient Tris-HCl gels (BioRad). Western blotting was performed using antibodies specific for NNAT (Cat#AB27266, Abcam), EPDR1 (Cat# SC81820, Santa Cruz), SSRP1 (Cat#SC56782, Santa Cruz), HOXB3 (Cat# SC17161, Santa Cruz), HNRNPK (Cat# SC28380, Santa Cruz), CNTFR, Phospho-p44/42 MAPK (Erk1/2, Cat #4370, Cell Signaling), p44/42 MAPK (Erk1/2, Cat #4695, Cell Signaling), VINCULIN (Cat#V9131, Sigma-Aldrich), and β-ACTIN (Sigma-Aldrich).

[2] = system: MDA-MB-231 cells; test: Orthotopic MDA tumor / pulmonary metastasis model, bioluminescence imaging; type: in vivo, CB-17 SCID mice
Method: (§2) For orthotopic injection, 1×10^6 viable MDA-MB-231, MDA-Cont, or MDA-miR-708 cells were injected into CB-17 SCID mice fat pads in a volume of 0.1 ml. Tumor growth and pulmonary metastases (following resection of primary tumor) were monitored by live animal bioluminescent imaging (Xenogen IVIS system) once per week.
(§3) Mice inoculated with firefly luciferase were anaesthetized and injected retro-orbitally with 75 mg/kg of D-luciferin (30 mg/mL in PBS). Images were taken with mice in a supine position using the Xenogen IVIS system coupled to Living Image acquisition and analysis software (Xenogen). For bioluminescence (BLI) plots, photon flux was calculated for each mouse by using a rectangular region of interest encompassing the thorax of the mouse.

[3] = system: NNAT protein; test: Western blot of NNAT; type: cell-based, human
Method: as §1

[4] = system: Akt2; test: Akt2 suppression in breast cancer cells (data not shown); type: cell-based
[5] = system: MDA-LM2 (LM2); test: Orthotopic MDA-LM2 tumor / pulmonary metastasis model; type: in vivo, mice
Method: as §2, §3
Paraffin embedded sections (5 μm) were deparaffinized following standard protocols. […] Images were obtained with an Axiovert 40 CFL microscope coupled with Axioversion 4.8.2 software (Carl Zeiss). For nodule counting, lungs were perfused, isolated and OCT embedded and sectioned for immunohistochemical analysis. Cryosections (8 μm) were mounted on glass slides and stained with hematoxylin and eosin (H&E).
To measure number of CTC in blood, 100 μl of peripheral blood was collected from mice bearing orthotopic […] expressing MDA and MDA-mir-708 breast tumors. Total RNA was isolated and subjected to Taqman Q-PCR for GFP transgene. To convert quantitative-PCR data into number of CTCs, a standard curve was generated by serially diluting GFP+MDA tumor spiked into […] of normal wild type mouse blood.

[6] = system: intracellular Ca^2+; test: Intracellular calcium measurements (Fura-2, ATP stimulation); type: cell-based, human
Method: MDA-control, MDA-miR-708, and MDA-miR-708-Nnat-mut cells were grown on coverslips and used 2-3 days after plating. Cells were loaded with […] Fura-2 (Molecular Probes), a membrane-permeable Ca^2+-indicator dye, at 37° C. for 30 min. Cells were then washed and incubated in HEPES-buffered Na^+-Ringer's solution (140 mM NaCl, 5 mM KCl, 10 mM HEPES, 2 mM CaCl2, and 1 mM MgCl2, pH 7.4). Individual vials (50 mg) of the acetoxymethyl derivative of Fura-2 (Invitrogen/Molecular Probes) were stored dry at 0° C. and reconstituted in dimethyl sulfoxide at a concentration of 10 mM for each experiment. At the concentrations used, dimethyl sulfoxide had no effect on any preparation in these studies. The coverslip with the dye-loaded cells was attached to the bottom of a flow-through superfusion chamber and mounted on the stage of an inverted epifluorescence microscope (Nikon Eclipse TE-2000). The cells in the chamber were superfused and maintained at 37° C. as previously described (O'Connor and Silver, 2007). Cells were first visualized under transmitted light with a Nikon CF Fluor oil immersion objective (X40/1.3 numerical aperture) before the start of the fluorescence measurements. Images were obtained at 340 nm and 380 nm excitation and at 510 nm emission wavelengths. The ratio was determined from the images at 340 nm and 380 nm. The imaging workstation was controlled with the MetaFluor software package (Universal Imaging). Cells in the experimental field of view were analyzed singularly and independently from their neighbors. Results are expressed as means±SEM, where n refers to the total number of individually analyzed cells.
The inventors hypothesized that miR-708-mediated targeting of Nnat may lead to impaired regulation of intracellular Ca^2+. This would explain the inhibitory effect on the migratory phenotype of metastatic tumor cells observed earlier (see, e.g., FIG. 1E). To test this hypothesis, MDA and MDA-miR-708 cells were loaded with the intracellular calcium indicator, Fura-2, and the 340/380 ratios were monitored in the absence and presence of exogenous ATP. ATP binds ATP receptors on the cell surface, resulting in the cleavage of PIP2 into IP3 and DAG. IP3 binds IP3 receptors on the endoplasmic reticulum membrane, and releases ionized calcium from the endoplasmic reticulum (Vandewalle et al., 1994), (Berridge et al., 2003; Swanson et al., 1998). Thus, ATP-stimulated calcium release from endoplasmic reticulum was used to evaluate the consequence of Nnat suppression by miR-708.

[7] = system: Nnat 3'-UTR; test: 3'-UTR dual luciferase assay; type: cell-based, human
Method: The 3′-UTR of a gene of interest was amplified by PCR and cloned into a pmirGLO Dual-Luciferase miRNA Target Expression Vector (Promega). To express miRNA, synthetic premiRNA precursor for miR-708 and control scrambled miRNA were purchased from Applied Biosystems (Ambion). The miRNA precursor and pmirGLO Dual-Luciferase 3′-UTR vector were co-transfected into […] cells using the siPORT NeoFX Transfection Agent following manufacturer's instructions (Ambion). Cells were harvested and lysed at 48 hr post-transfection. The interaction between miR-708 and target 3′-UTR was measured by Dual-luciferase assay system (Promega).

miR-708: microRNA, mature sequence 5'-AAGGAGCUUACAAUCUAGCUGGG-3' (SEQ ID NO: 2); expressed from lentiviral vector or used as synthetic precursor
activated Erk (p-Erk) levels [1]: reduced levels
primary tumor growth (bioluminescence imaging) ([2]; MDA-miR-708 vs MDA-pZeo control, day 30): no change
lung metastases (bioluminescence) ([2]; MDA-miR-708 vs control, primary tumors resected day 30, day 37): significantly suppressed
primary tumor growth (bioluminescence) ([2]; constitutive miR-708 in MDA cells, mammary fat pad, day 60): no significant difference
lung metastases (bioluminescence) ([2]; constitutive miR-708 in MDA cells, primary tumors resected day 60, day 74): suppressed lung metastases
primary tumor growth ([2]; doxycycline-mediated induction of miR-708, day 60): not affected
metastases ([2]; doxycycline-mediated induction of miR-708, day 74): attenuated metastases
expression of NNAT protein ([3]; MDA-708 vs MDA control cells, constitutive expression): significantly decreased
Nnat levels ([3]; doxycycline-mediated conditional expression of miR-708): significant reduction
NNAT expression from Nnat cDNA ([3]; mutant 3'-UTR (Nnat-mut), synthetic miR-708): abolished miR-708-mediated suppression
NNAT expression from Nnat cDNA ([3]; wild type UTR, synthetic miR-708 vs scrambled): suppressed expression
Akt2 suppression [4]: not suppressed
primary tumor growth ([5]; LM2 cells over-expressing miR-708, day 60): remained unperturbed
lung metastases (photon flux) ([5]; LM2 cells over-expressing miR-708, day 67): significantly lower photon flux; also recorded: pronounced reduction
number of lung metastatic nodules ([5]; MDA-LM2-miR-708 vs controls, H&E sections): reduced numbers
number of circulating tumor cells (CTCs) ([5]; peripheral blood of MDA-LM2-miR-708 tumor bearing mice vs controls): reduced number
primary tumor size measurements ([5]; weight over time, FIG. 7H): unaffected
regulation of intracellular Ca^2+ after ATP ([6]; MDA cells expressing miR-708 vs MDA): attenuated regulation
slope, initial rate of calcium regulation back to baseline (representative trace) ([6]; MDA-miR-708 cells stimulated with ATP, control slope 0.72): 0.3 ratio/min
pre-ATP stimulation (basal) ratio ([6]; MDA-miR-708 cells, mean±SEM): 0.97±0.01
peak calcium response due to ATP stimulation (340/380 ratio) ([6]; MDA-miR-708 cells, mean±SEM, n=107): 1.77±0.06
initial rate of calcium regulation back to baseline ([6]; MDA-miR-708 cells, n=105, control 0.52±0.03): 0.33±0.02
repression of 3'-UTR luciferase reporter ([7]; 293T cells, Renilla/Firefly ratio): significant repression
repression of wild type UTR (Nnat-UTR) reporter ([7]; synthetic miR-708 vs scrambled miRNA, intact UTR): effectively suppressed
repression of mutant UTR (Nnat-UTR-mut) reporter ([7]; synthetic miR-708 vs scrambled miRNA, mutated binding site): refractory to suppression
